# Like-named read-outs stand apart in the source and are kept apart here.
# Tests used:
# human 11β-HSD1 = biological target: T1, human 11β-HSD1 (Homo sapiens, UniProt P28845); assay: Enzyme inhibitory activity, human 11β-HSD1 (lysate of stably expressing HEK293 cells, cortisol by competitive ELISA); type: biochemical; conditions: human 11β-HSD1, cell lysate, 37° C. for 1 hour, read-out: h HSD1 in vitro assay (IC50 uM)
# T1 construct: The obtained PCR products of about 0.9 kbp, 1.2 kbp, and 0.9 kbp were subcloned into an expression vector pcDNA3.1+/Zeo; expressed in transfected cells
# Experimental: (§1) 1. Human 11β-HSD1-, Human 11β-HSD2- and Mouse 11β-HSD1-Gene Clonings and Establishment of Stably Expressing Cells
# (§2) Human 11β-HSD1-, human 11β-HSD2-, and mouse 11β-HSD1-gene clonings were conducted using as a template a reverse transcription product of human-liver RNA, human-kidney RNA (CELL APPLICATIONS), and mouse-kidney RNA respectively, by means of PCR cloning with reference to nucleotide sequences of Genbank Accession Nos. NM_005525, NM_000196, and NM_008288. The obtained PCR products of about 0.9 kbp, 1.2 kbp, and 0.9 kbp were subcloned into an expression vector pcDNA3.1+/Zeo (Invitrogen).
# (§3) Human 11β-HSD1- and human 11β-HSD2-expressing vectors were transfected into human kidney-derived cell line, HEK293 cells, using a transfection reagent, jet PEI (Funakoshi). Mouse 11β-HSD1 was transfected to Chinese hamster ovary-derived cell line, CHO-K1 cells. Selection was conducted with 200-400 μg/mL of zeocine (Invitrogen) to provide stably expressing-cell clones. The stably expressing cells were suspended in buffer solution A (20 mmol/L Tris-HCl, pH 7.4, 250 mmol/L sucrose, 1 mmol/L EGTA, 1 mmol/L EDTA, 1 mmol/L MgCl2), sonicated, and then stored at −80° C.
# (§4) 2. Assay of Enzyme Inhibitory Activity
# (§5) An enzymatic reaction was conducted using a polystyrene 96-well plate. Each well was added with 1 μL of a test agent dissolved in DMSO and then diluted (0.003 to 3 mmol/L), and further added with 10 μL of cell lysate diluted to a concentration of 0.1 mg/mL to 0.4 mg/mL. Next, 90 μL of buffer solution A containing substrate (100 nmol/L cortisone or cortisol) and coenzyme (400 μmol/L NADPH or NAD+) was added and the mixture was incubated at 37° C. for 1 hour. The enzymatic reaction was stopped by treating at 95° C. for 3 minutes. Cortisol that was present in the reaction solution was determined by a competitive ELISA shown below.
# (§6) Anti-rabbit IgG antibody (Chemi-con) diluted to 2 μg/mL with carbonate buffer solution (pH 9.6) was added in 100 μL each to a 96-well immuno plate (Nunc) and immobilized by an incubation at 4° C. overnight. 50 μL of enzymatic reaction solution was put onto the plates, and further, anti-cortisol antibody (Cosmo Bio) and HRP-labeled cortisol (Cosmo Bio), diluted with buffer solution B (25 mmol/L Tris-HCl pH 7.4, 137 mmol/L NaCl, 2.68 mmol/L KCl), were added in 50 μL respectively and incubated at 4° C. overnight. After washed three times with buffer solution B containing 0.05% Tween 20, the plates were allowed to develop color by adding 100 μL of color reagent, TMB (Moss). The color reaction was stopped by 25 μL of 1 mol/L sulfuric acid and the absorbance was determined at 450 nm with a microplate reader (Molecular Device, VersaMax).
# (§7) The values of human 11β-HSD1, human 11β-HSD2, and mouse 11β-HSD1 activities were subtracted from 100, and the resultant values were regarded as the respective 11β-HSD inhibition rates of example compounds. […] The comparison of human 11β-HSD1 and human 11β-HSD2 inhibiting activities is shown in Table 1, and the comparison of human 11β-HSD1 and mouse 11β-HSD1 inhibiting activities is shown in Table 2.
# mouse 11β-HSD1 = biological target: T2, mouse 11β-HSD1 (Mus musculus, UniProt P50172); assay: Enzyme inhibitory activity, mouse 11β-HSD1 (lysate of stably expressing CHO-K1 cells, cortisol by competitive ELISA); type: biochemical; conditions: Table 2; mouse 11β-HSD1, cell lysate, 37° C. for 1 hour; read-out: m HSD1 in vitro assay (IC50 uM)
# T2 construct: The obtained PCR products of about 0.9 kbp, 1.2 kbp, and 0.9 kbp were subcloned into an expression vector pcDNA3.1+/Zeo; expressed in transfected cells
# Experimental: as §1, §2, §3, §4, §5, §6, §7
# T1 sequence (P28845 whole entry): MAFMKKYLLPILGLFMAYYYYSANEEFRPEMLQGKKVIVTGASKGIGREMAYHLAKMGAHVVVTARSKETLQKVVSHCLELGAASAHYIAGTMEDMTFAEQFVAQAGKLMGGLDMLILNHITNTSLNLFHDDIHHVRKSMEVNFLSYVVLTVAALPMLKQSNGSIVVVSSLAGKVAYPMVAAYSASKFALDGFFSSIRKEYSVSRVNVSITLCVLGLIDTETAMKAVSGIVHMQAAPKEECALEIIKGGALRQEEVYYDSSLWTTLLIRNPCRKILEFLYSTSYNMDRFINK
# T2 sequence (P50172 whole entry): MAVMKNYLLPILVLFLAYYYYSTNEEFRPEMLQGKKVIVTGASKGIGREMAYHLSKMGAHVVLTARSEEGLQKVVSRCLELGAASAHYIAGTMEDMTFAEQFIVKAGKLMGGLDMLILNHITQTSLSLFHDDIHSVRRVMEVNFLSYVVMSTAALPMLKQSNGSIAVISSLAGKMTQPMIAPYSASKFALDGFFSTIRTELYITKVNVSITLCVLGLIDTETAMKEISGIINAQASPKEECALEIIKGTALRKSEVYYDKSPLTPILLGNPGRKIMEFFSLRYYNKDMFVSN
SMILES,IC50 (human 11β-HSD1; Table 2),IC50 (mouse 11β-HSD1),IC50 (human 11β-HSD1; Table 1)
"COc1ccccc1CN1N(C2C3CC4CC(C3)CC2C4)C(=O)C1(C)C (stereo not shown) [Example 51, 1-(2-methoxybenzyl)-4,4-dimethyl-2-(adamantan-2-yl)-1,2-diazetidin-3-one]",0.082 µM,0.58 µM,–
"CC1(C)C(=O)N(C2C3CC4CC(C3)CC2C4)N1Cc1ccc(Br)cc1 (stereo not shown) [Example 53, 1-(4-bromobenzyl)-4,4-dimethyl-2-(adamantan-2-yl)-1,2-diazetidin-3-one]",0.35 µM,0.06 µM,–
"COc1cccc(CN2N(C3C4CC5CC(C4)CC3C5)C(=O)C2(C)C)c1 (stereo not shown) [Example 54, 1-(3-methoxybenzyl)-4,4-dimethyl-2-(adamantan-2-yl)-1,2-diazetidin-3-one]",0.3 µM,0.036 µM,–
"Cc1ccc(CN2N(C3C4CC5CC(C4)CC3C5)C(=O)C2(C)C)c(C)c1 (stereo not shown) [Example 55, 1-(2,4-dimethylbenzyl)-4,4-dimethyl-2-(adamantan-2-yl)-1,2-diazetidin-3-one]",0.067 µM,0.069 µM,–
"Cc1ccc(C)c(CN2N(C3C4CC5CC(C4)CC3C5)C(=O)C2(C)C)c1 (stereo not shown) [Example 56, 1-(2,5-dimethylbenzyl)-4,4-dimethyl-2-(adamantan-2-yl)-1,2-diazetidin-3-one]",0.054 µM,0.052 µM,–
"Cc1c(F)cccc1CN1N(C2C3CC4CC(C3)CC2C4)C(=O)C1(C)C (stereo not shown) [Example 58, 1-(3-fluoro-2-methylbenzyl)-4,4-dimethyl-2-(adamantan-2-yl)-1,2-diazetidin-3-one]",0.026 µM,0.061 µM,–
"CC1(C)C(=O)N(C2C3CC4CC(C3)CC2C4)N1Cc1cccc(Cl)c1F (stereo not shown) [Example 59, 1-(3-chloro-2-fluorobenzyl)-4,4-dimethyl-2-(adamantan-2-yl)-1,2-diazetidin-3-one]",0.25 µM,0.064 µM,–
"CC1(C)C(=O)N(C2C3CC4CC(C3)CC2C4)N1Cc1cccc2c1OCO2 (stereo not shown) [Example 61, 1-(1,3-benzodioxol-4-ylmethyl)-4,4-dimethyl-2-(adamantan-2-yl)-1,2-diazetidin-3-one]",0.23 µM,0.3 µM,–
"CC1(C)C(=O)N(C2C3CC4CC(C3)CC2C4)N1Cc1cccc2ccccc12 (stereo not shown) [Example 63, 4,4-dimethyl-1-(naphthalen-1-ylmethyl)-2-(adamantan-2-yl)-1,2-diazetidin-3-one]",0.015 µM,0.41 µM,–
"CC1(C)C(=O)N(C2C3CC4CC(C3)CC2C4)N1Cc1ccc2ccccc2c1 (stereo not shown) [Example 64, 4,4-dimethyl-1-(naphthalen-2-ylmethyl)-2-(adamantan-2-yl)-1,2-diazetidin-3-one]",0.6 µM,0.041 µM,–
"CC1(C)C(=O)N([C@H]2C3CC4CC2C[C@](O)(C4)C3)N1Cc1ccccc1Cl [Example 65, trans-1-(2-chlorobenzyl)-2-(5-hydroxyadamantan-2-yl)-4,4-dimethyl-1,2-diazetidin-3-one]",0.5 µM,0.47 µM,–
"CC1(C)C(=O)N([C@H]2C3CC4CC2C[C@](O)(C4)C3)N1Cc1ccccc1C(F)(F)F [Example 66, trans-2-(5-hydroxyadamantan-2-yl)-4,4-dimethyl-1-[2-(trifluoromethyl)benzyl]-1,2-diazetidin-3-one]",–,0.57 µM,0.09 µM
"CC1(C)C(=O)N([C@H]2C3CC4CC2C[C@](O)(C4)C3)N1Cc1cc(F)ccc1Cl [Example 67, trans-1-(2-chloro-5-fluorobenzyl)-2-(5-hydroxyadamantan-2-yl)-4,4-dimethyl-1,2-diazetidin-3-one]",0.12 µM,0.29 µM,–
"CC1(C)C(=O)N(C2CCCCCCC2)N1Cc1ccccc1Cl [Example 73, 1-(2-chlorobenzyl)-2-cyclooctyl-4,4-dimethyl-1,2-diazetidin-3-one]",0.021 µM,0.11 µM,–
"CC1(C)C(=O)N(C2CCCCCCC2)N1Cc1cc(Cl)ccc1Cl [Example 75, 2-cyclooctyl-1-(2,5-dichlorobenzyl)-4,4-dimethyl-1,2-diazetidin-3-one]",0.038 µM,0.15 µM,–
"CC1(C)C(=O)N(C2CC3CCC2C3)N1Cc1ccccc1Cl (stereo not shown) [Example 78, 2-(bicyclo[2.2.1]heptan-2-yl)-1-(2-chlorobenzyl)-4,4-dimethyl-1,2-diazetidin-3-one]",0.15 µM,0.64 µM,–
"CC1(C)C(=O)N(C2CC3CCC2C3)N1Cc1cccc(Cl)c1Cl (stereo not shown) [Example 79, 2-(bicyclo[2.2.1]heptan-2-yl)-1-(2,3-dichlorobenzyl)-4,4-dimethyl-1,2-diazetidin-3-one]",0.22 µM,0.36 µM,–
"CC1(C)C(=O)N(C2CC3CCC2C3)N1Cc1cc(Cl)ccc1Cl (stereo not shown) [Example 80, 2-(bicyclo[2.2.1]heptan-2-yl)-1-(2,5-dichlorobenzyl)-4,4-dimethyl-1,2-diazetidin-3-one]",0.13 µM,0.39 µM,–
"CC1(C)C(=O)N(C2CCCCCC2)N1Cc1ccccc1Cl [Example 83, 1-(2-chlorobenzyl)-2-cycloheptyl-4,4-dimethyl-1,2-diazetidin-3-one]",0.092 µM,0.66 µM,–
"CC1(C)C(=O)N(C2CCCCCC2)N1Cc1cccc(Cl)c1Cl [Example 84, 2-cycloheptyl-1-(2,3-dichlorobenzyl)-4,4-dimethyl-1,2-diazetidin-3-one]",0.13 µM,0.61 µM,–
"CC1(C)C(=O)N(C2CCCCCC2)N1Cc1cc(Cl)ccc1Cl [Example 85, 2-cycloheptyl-1-(2,5-dichlorobenzyl)-4,4-dimethyl-1,2-diazetidin-3-one]",0.053 µM,0.37 µM,–
"CC1(C)C(=O)N(C2CCCCCC2)N1Cc1ccc(F)cc1Cl [Example 86, 1-(2-chloro-4-fluorobenzyl)-2-cycloheptyl-4,4-dimethyl-1,2-diazetidin-3-one]",0.14 µM,0.49 µM,–
"CC1(C)C(=O)N(C2CCCCCC2)N1Cc1cc(F)ccc1Cl [Example 87, 1-(2-chloro-5-fluorobenzyl)-2-cycloheptyl-4,4-dimethyl-1,2-diazetidin-3-one]",0.1 µM,0.85 µM,–
"CC1(C)C(=O)N(C2C3CC4CC2CC(C(N)=O)(C4)C3)N1Cc1ccccc1Cl (stereo not shown) [Example 95, 4-[2-(2-chlorobenzyl)-3,3-dimethyl-4-oxo-1,2-diazetidin-1-yl]adamantane-1-carboxamide]",0.13 µM,0.35 µM,–
"CC1(C)C(=O)N(C2C3CC4CC(C3)CC2C4)N1C(=O)c1ccccc1 (stereo not shown) [Example 96, 4,4-dimethyl-1-(phenylcarbonyl)-2-(adamantan-2-yl)-1,2-diazetidin-3-one]",0.8 µM,0.22 µM,–
"CC1(C)C(=O)N(C2C3CC4CC(C3)CC2C4)N1C(=O)c1ccc(Br)cc1 (stereo not shown) [Example 106, 1-[(4-bromophenyl)carbonyl]-4,4-dimethyl-2-(adamantan-2-yl)-1,2-diazetidin-3-one]",0.75 µM,0.17 µM,–
"Cc1cccc(C(=O)N2N(C3C4CC5CC(C4)CC3C5)C(=O)C2(C)C)c1 (stereo not shown) [Example 109, 4,4-dimethyl-1-[(3-methylphenyl)carbonyl]-2-(adamantan-2-yl)-1,2-diazetidin-3-one]",0.75 µM,0.2 µM,–
"CC1(C)C(=O)N(C2C3CC4CC(C3)CC2C4)N1C(=O)c1cccc(Br)c1 (stereo not shown) [Example 113, 1-[(3-bromophenyl)carbonyl]-4,4-dimethyl-2-(adamantan-2-yl)-1,2-diazetidin-3-one]",0.42 µM,0.12 µM,–
"Cc1ccc(C(=O)N2N(C3C4CC5CC(C4)CC3C5)C(=O)C2(C)C)cc1 (stereo not shown) [Example 114, 4,4-dimethyl-1-[(4-methylphenyl)carbonyl]-2-(adamantan-2-yl)-1,2-diazetidin-3-one]",0.54 µM,0.11 µM,–

# — patent publication US8252781B2, “1,2-diazetidin-3-one derivatives and drugs containing same” (Kowa Company, Ltd., priority 2008, dated 2012)
